# According to patent US12077503B2, “Substituted cyclic amides and their use as herbicides” (FMC CORPORATION, priority 2015, dated 2024):
# What was measured:
# Assay type in all cases: in vivo
# [1] = system: barnyardgrass (Echinochloa crus-galli); test: Test G Pre-Emergence Protocol; conditions: Echinochloa crus-galli, pre-emergence, 312 h, evaluated after 13 days; for pest or weed control at 15.625 g/ha: 15.625 g ai/ha, read-out: Barnyard grass damage rating (100=total damage to plant; 0=no damage to plant); for pest or weed control at 62.5 g/ha: 62.5 g ai/ha, 100=total damage to plant, 0=no damage to plant, read-out: plant damage rating, Barnyardgrass; for pest or weed control at 250 g/ha: 250 g ai/ha, read-out: Barnyardgrass damage rating (100=total damage to plant; 0=no damage to plant)
# Summary of the method: (§1)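 Under a 24/16° C day/night regime with 14 h light and 65% humidity, sown pots were sprayed after one day with compound (15.625, 62.5 or 250 g/ha; 50:50 acetone/water, 0.5% Tween 20). Damage was assessed visually 13 days later, 0 to 100.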
# [2] = system: ivy-leaved morning glory (Ipomoea hederacea); test: Test G Pre-Emergence Protocol; conditions: Ipomoea, pre-emergence, 312 h, evaluated after 13 days; for pest or weed control at 15.625 g/ha: 15.625 g ai/ha, read-out: Morning-glory, Ivy-leaved damage rating (100=total damage to plant; 0=no damage to plant); for pest or weed control at 62.5 g/ha: 62.5 g ai/ha, 100=total damage to plant, 0=no damage to plant, read-out: plant damage rating, Morningglory, Ivy-leaved; for pest or weed control at 250 g/ha: 250 g ai/ha, read-out: Morningglory, Ivy-leaved damage rating (100=total damage to plant; 0=no damage to plant)
# Summary of the method: as §1
# [3] = system: redroot pigweed (Amaranthus retroflexus); test: Test G Pre-Emergence Protocol; conditions: Amaranthus retroflexus, pre-emergence, 312 h, evaluated after 13 days; for pest or weed control at 15.625 g/ha: 15.625 g ai/ha; for pest or weed control at 15.625 g/ha / pest or weed control at 250 g/ha: read-out: Pigweed, Redroot damage rating (100=total damage to plant; 0=no damage to plant); for pest or weed control at 62.5 g/ha: 62.5 g ai/ha, 100=total damage to plant, 0=no damage to plant, read-out: plant damage rating, Pigweed, Redroot; for pest or weed control at 250 g/ha: 250 g ai/ha
# Summary of the method: as §1
# [4] = system: velvetleaf (Abutilon theophrasti); test: Test G Pre-Emergence Protocol; conditions: Abutilon theophrasti, pre-emergence, 312 h, evaluated after 13 days; for pest or weed control at 15.625 g/ha: 15.625 g ai/ha; for pest or weed control at 15.625 g/ha / pest or weed control at 250 g/ha: read-out: Velvetleaf damage rating (100=total damage to plant; 0=no damage to plant); for pest or weed control at 62.5 g/ha: 62.5 g ai/ha, 100=total damage to plant, 0=no damage to plant, read-out: plant damage rating, Velvetleaf; for pest or weed control at 250 g/ha: 250 g ai/ha
# Summary of the method: as §1
# [5] = system: giant foxtail (Setaria faberi); test: Test G Pre-Emergence Protocol; conditions: Setaria faberi, pre-emergence, 312 h, evaluated after 13 days; for pest or weed control at 15.625 g/ha: 15.625 g ai/ha; for pest or weed control at 15.625 g/ha / pest or weed control at 250 g/ha: read-out: Foxtail, Giant damage rating (100=total damage to plant; 0=no damage to plant); for pest or weed control at 62.5 g/ha: 62.5 g ai/ha, 100=total damage to plant, 0=no damage to plant, read-out: plant damage rating, Foxtail, Giant; for pest or weed control at 250 g/ha: 250 g ai/ha
# Summary of the method: as §1
# [6] = system: corn (Zea mays); test: Test G Pre-Emergence Protocol; conditions: Zea mays, pre-emergence, 312 h, evaluated after 13 days; for plant injury at 15.625 g/ha: 15.625 g ai/ha; for plant injury at 15.625 g/ha / plant injury at 250 g/ha: read-out: Corn damage rating (100=total damage to plant; 0=no damage to plant); for plant injury at 62.5 g/ha: 62.5 g ai/ha, 100=total damage to plant, 0=no damage to plant, read-out: plant damage rating, Corn; for plant injury at 250 g/ha: 250 g ai/ha
# Summary of the method: as §1
# [7] = system: barnyardgrass (Echinochloa crus-galli); test: Test G Post-Emergence Protocol; conditions: Echinochloa crus-galli, post-emergence, 312 h; for pest or weed control at 15.625 g/ha: 15.625 g ai/ha, evaluated after 13 days (100=total damage to plant; 0=no damage to plant), read-out: Barnyardgrass damage rating; for pest or weed control at 62.5 g/ha: 62.5 g ai/ha, read-out: Barnyardgrass damage rating (100=total damage to plant; 0=no damage to plant); for pest or weed control at 62.5 g/ha / pest or weed control at 250 g/ha: evaluated after 13 days; for pest or weed control at 250 g/ha: 250 g ai/ha, read-out: damage to plant, Barnyardgrass (100=total damage to plant; 0=no damage to plant)
# Summary of the method: (§2)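 Sow in soil; grow 8 d (24/16 °C, 14 h light, 65% humidity); spray 15.625/62.5/250 g/ha in acetone:water 50:50 + 0.5% Tween 20; grow on, water twice daily; score damage 0–100 at 13 d.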
# [8] = system: ivy-leaved morning glory (Ipomoea hederacea); test: Test G Post-Emergence Protocol; conditions: Ipomoea, post-emergence, 312 h; for pest or weed control at 15.625 g/ha: 15.625 g ai/ha, evaluated after 13 days (100=total damage to plant; 0=no damage to plant), read-out: Morningglory, Ivy-leaved damage rating; for pest or weed control at 62.5 g/ha: 62.5 g ai/ha, read-out: Morningglory, Ivy-leaved damage rating (100=total damage to plant; 0=no damage to plant); for pest or weed control at 62.5 g/ha / pest or weed control at 250 g/ha: evaluated after 13 days; for pest or weed control at 250 g/ha: 250 g ai/ha, read-out: damage to plant, Morningglory, Ivy-leaved (100=total damage to plant; 0=no damage to plant)
# Summary of the method: as §2
# [9] = system: redroot pigweed (Amaranthus retroflexus); test: Test G Post-Emergence Protocol; conditions: Amaranthus retroflexus, post-emergence, 312 h; for pest or weed control at 15.625 g/ha: 15.625 g ai/ha, evaluated after 13 days (100=total damage to plant; 0=no damage to plant), read-out: Pigweed, Redroot damage rating; for pest or weed control at 62.5 g/ha: 62.5 g ai/ha, read-out: Pigweed, Redroot damage rating (100=total damage to plant; 0=no damage to plant); for pest or weed control at 62.5 g/ha / pest or weed control at 250 g/ha: evaluated after 13 days; for pest or weed control at 250 g/ha: 250 g ai/ha, read-out: damage to plant, Pigweed, Redroot (100=total damage to plant; 0=no damage to plant)
# Summary of the method: as §2
# [10] = system: velvetleaf (Abutilon theophrasti); test: Test G Post-Emergence Protocol; conditions: Abutilon theophrasti, post-emergence, 312 h; for pest or weed control at 15.625 g/ha: 15.625 g ai/ha, evaluated after 13 days (100=total damage to plant; 0=no damage to plant), read-out: Velvetleaf damage rating; for pest or weed control at 62.5 g/ha: 62.5 g ai/ha, read-out: Velvetleaf damage rating (100=total damage to plant; 0=no damage to plant); for pest or weed control at 62.5 g/ha / pest or weed control at 250 g/ha: evaluated after 13 days; for pest or weed control at 250 g/ha: 250 g ai/ha, read-out: damage to plant, Velvetleaf (100=total damage to plant; 0=no damage to plant)
# Summary of the method: as §2
# [11] = system: giant foxtail (Setaria faberi); test: Test G Post-Emergence Protocol; conditions: Setaria faberi, post-emergence, 312 h; for pest or weed control at 15.625 g/ha: 15.625 g ai/ha, evaluated after 13 days (100=total damage to plant; 0=no damage to plant), read-out: Foxtail, Giant damage rating; for pest or weed control at 62.5 g/ha: 62.5 g ai/ha, read-out: Foxtail, Giant damage rating (100=total damage to plant; 0=no damage to plant); for pest or weed control at 62.5 g/ha / pest or weed control at 250 g/ha: evaluated after 13 days; for pest or weed control at 250 g/ha: 250 g ai/ha, read-out: damage to plant, Foxtail, Giant (100=total damage to plant; 0=no damage to plant)
# Summary of the method: as §2
# [12] = system: corn (Zea mays); test: Test G Post-Emergence Protocol; conditions: Zea mays, post-emergence, 312 h; for plant injury at 15.625 g/ha: 15.625 g ai/ha, evaluated after 13 days (100=total damage to plant; 0=no damage to plant), read-out: Corn damage rating; for plant injury at 62.5 g/ha: 62.5 g ai/ha, read-out: Corn damage rating (100=total damage to plant; 0=no damage to plant); for plant injury at 62.5 g/ha / plant injury at 250 g/ha: evaluated after 13 days; for plant injury at 250 g/ha: 250 g ai/ha, read-out: damage to plant, Corn (100=total damage to plant; 0=no damage to plant)
# Summary of the method: as §2
SMILES,pest or weed control at 15.625 g/ha [1] [%],pest or weed control at 62.5 g/ha [1] [%],pest or weed control at 250 g/ha [1] [%],pest or weed control at 15.625 g/ha [2] [%],pest or weed control at 62.5 g/ha [2] [%],pest or weed control at 250 g/ha [2] [%],pest or weed control at 15.625 g/ha [3] [%],pest or weed control at 62.5 g/ha [3] [%],pest or weed control at 250 g/ha [3] [%],pest or weed control at 15.625 g/ha [4] [%],pest or weed control at 62.5 g/ha [4] [%],pest or weed control at 250 g/ha [4] [%],pest or weed control at 15.625 g/ha [5] [%],pest or weed control at 62.5 g/ha [5] [%],pest or weed control at 250 g/ha [5] [%],plant injury at 15.625 g/ha [6] [%],plant injury at 62.5 g/ha [6] [%],plant injury at 250 g/ha [6] [%],pest or weed control at 15.625 g/ha [7] [%],pest or weed control at 62.5 g/ha [7] [%],also measured
C[C@@]1(C(=O)Nc2cccc(F)c2F)C(=O)NC[C@@H]1c1ccc(C(F)(F)F)cc1 (racemic) [Compound 1405],0,0,0,0,0,0,0,0,0,0,0,0,0,0,0,0,0,0,0,0,pest or weed control at 250 g/ha [7]: 0%; pest or weed control at 15.625 g/ha [8]: 0%; pest or weed control at 62.5 g/ha [8]: 0%; pest or weed control at 250 g/ha [8]: 0%; pest or weed control at 15.625 g/ha [9]: 0%; pest or weed control at 62.5 g/ha [9]: 0%; pest or weed control at 250 g/ha [9]: 0%; pest or weed control at 15.625 g/ha [10]: 0%; pest or weed control at 62.5 g/ha [10]: 0%; pest or weed control at 250 g/ha [10]: 0%; pest or weed control at 15.625 g/ha [11]: 0%; pest or weed control at 62.5 g/ha [11]: 0%; pest or weed control at 250 g/ha [11]: 0%; plant injury at 15.625 g/ha [12]: 0%; plant injury at 62.5 g/ha [12]: 0%; plant injury at 250 g/ha [12]: 0%
CN1C[C@@H](c2ccc(C(F)(F)F)nc2)[C@H](C(=O)Nc2cccc(F)c2F)C1=O (racemic) [Compound 1458],20,80,80,0,0,20,0,0,70,0,0,30,20,80,80,0,0,50,10,20,pest or weed control at 250 g/ha [7]: 20%; pest or weed control at 15.625 g/ha [8]: 10%; pest or weed control at 62.5 g/ha [8]: 20%; pest or weed control at 250 g/ha [8]: 30%; pest or weed control at 15.625 g/ha [9]: 10%; pest or weed control at 62.5 g/ha [9]: 30%; pest or weed control at 250 g/ha [9]: 30%; pest or weed control at 15.625 g/ha [10]: 0%; pest or weed control at 62.5 g/ha [10]: 0%; pest or weed control at 250 g/ha [10]: 0%; pest or weed control at 15.625 g/ha [11]: 30%; pest or weed control at 62.5 g/ha [11]: 50%; pest or weed control at 250 g/ha [11]: 60%; plant injury at 15.625 g/ha [12]: 10%; plant injury at 62.5 g/ha [12]: 10%; plant injury at 250 g/ha [12]: 10%
